Data published in patent US20060069132A1, “Azolecarboxamide herbicides” (priority 2004, published 2006).

Experiments:
soybean = test: Test C pre-/postemergence herbicide test; assay type: in vivo, Glycine max; conditions: preemergence
Procedure, shortened: (§1)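 Pre/post spray; non-phytotoxic solvent + surfactant. Post-timing 1–4 leaves, 2–18 cm. Read-out: visual % control vs untreated, day 12–14, greenhouse.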

lambsquarters = test: Test C pre-/postemergence herbicide test; assay type: in vivo, Chenopodium album; conditions: preemergence
Procedure, shortened: as §1

eastern black nightshade = test: Test C pre-/postemergence herbicide test; assay type: in vivo, Solanum ptycanthum; conditions: preemergence
Procedure, shortened: as §1

Surinam grass = test: Test C pre-/postemergence herbicide test; assay type: in vivo, Urochloa decumbens; conditions: preemergence
Procedure, shortened: as §1

corn = test: Test C pre-/postemergence herbicide test; assay type: in vivo, Zea mays; conditions: preemergence
Procedure, shortened: as §1

yellow nutsedge = test: Test C pre-/postemergence herbicide test; assay type: in vivo, Cyperus esculentus; conditions: preemergence
Procedure, shortened: as §1

johnsongrass = test: Test C pre-/postemergence herbicide test; assay type: in vivo, Sorghum halepense; conditions: preemergence
Procedure, shortened: as §1

morningglory = test: Test C pre-/postemergence herbicide test; assay type: in vivo, Ipomoea coccinea; parameters: key to Plant response rating, Morningglory: 0 = no effect, 100 = complete control; conditions: preemergence
Procedure, shortened: as §1

common ragweed = test: Test C pre-/postemergence herbicide test; assay type: in vivo, Ambrosia elatior; parameters: key to Plant response rating, Ragweed: 0 = no effect, 100 = complete control; conditions: preemergence
Procedure, shortened: as §1

giant foxtail = test: Test C pre-/postemergence herbicide test; assay type: in vivo, Setaria faberi; conditions: preemergence
Procedure, shortened: as §1

[1] = system: smallflower umbrella sedge; test: Test C flooded paddy test; assay type: in vivo, Cyperus difformis
barnyardgrass = test: Test C flooded paddy test; assay type: in vivo, Echinochloa crus-galli
Procedure, shortened: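 Postemergence sprays were applied to plants 2 to 18 cm tall (1- to 4-leaf stage); in the flooded paddy test, barnyardgrass was grown to the 2-leaf stage. After 12 to 14 days in a greenhouse, injury was visually rated against untreated controls on a 0–100 scale (100 = complete control).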

ducksalad = test: Test C flooded paddy test; assay type: in vivo, Heteranthera limosa
[2] = 500 g ai/ha, scale 0 to 100 (0 no effect, 100 complete control), visual, 12 to 14 days
[3] = 125 g ai/ha, scale 0 (no effect) to 100 (complete control), visual, 12 to 14 days
[4] = 62 g ai/ha, scale 0 to 100 (0 no effect, 100 complete control)
[5] = 125 g ai/ha, scale 0 to 100 (0 no effect, 100 complete control)
[6] = 250 g ai/ha, scale of 0 to 100, 0 is no effect, 100 is complete control
[7] = 500 g ai/ha, visual rating after 12 to 14 days, scale 0 to 100 (0 no effect, 100 complete control)

SMILES: CCN(CC)C(=O)c1cccc(NC(=O)c2cc(C(C)(C)C)nn2C)n1 [Compound 314]
- Plant response rating, Soybean (soybean; 62 g ai/ha, scale 0 to 100): 0
- Plant response rating, Soybean (soybean; 250 g ai/ha, scale 0-100): 40
- Plant response rating, Soybean (soybean; [2]): 40
- Plant response rating, Lambsquarters (lambsquarters; 62 g ai/ha, scale 0 to 100): 0
- Plant response rating, Lambsquarters (lambsquarters; [3]): 10
- Plant response rating, Lambsquarters (lambsquarters; 250 g ai/ha, scale 0-100): 30
- Plant response rating, Lambsquarters (lambsquarters; [2]): 85
- Plant response rating, Nightshade (eastern black nightshade; 62 g ai/ha, scale 0 to 100): 60
- Plant response rating, Nightshade (eastern black nightshade; [3]): 85
- Plant response rating, Nightshade (eastern black nightshade; 250 g ai/ha, scale 0-100): 90
- Plant response rating, Nightshade (eastern black nightshade; [2]): 100
- Plant response rating, Surinam Grass (Surinam grass; 62 g ai/ha, scale 0 to 100): 0
- Plant response rating, Surinam Grass (Surinam grass; 250 g ai/ha, scale 0-100): 0
- Plant response rating, Surinam Grass (Surinam grass; [2]): 20
- Plant response rating, Corn (corn; 62 g ai/ha, scale 0 to 100): 0
- Plant response rating, Corn (corn; [3]): 0
- Plant response rating, Corn (corn; 250 g ai/ha, scale 0-100): 0
- Plant response rating, Corn (corn; [2]): 0
- Plant response rating, Nutsedge, Yellow (yellow nutsedge; 62 g ai/ha, scale 0 to 100): 0
- Plant response rating, Nutsedge, Yellow (yellow nutsedge; [3]): 0
- Plant response rating, Nutsedge, Yellow (yellow nutsedge; 250 g ai/ha, scale 0-100): 0
- Plant response rating, Nutsedge, Yellow (yellow nutsedge; [2]): 0
- Plant response rating, Johnsongrass (johnsongrass; 62 g ai/ha, scale 0 to 100): 0
- Plant response rating, Johnsongrass (johnsongrass; [3]): 20
- Plant response rating, Johnsongrass (johnsongrass; 250 g ai/ha, scale 0-100): 70
- Plant response rating, Johnsongrass (johnsongrass; [2]): 90
- Plant response rating, Morningglory (morningglory; 62 g ai/ha, scale 0 to 100): 0
- Plant response rating, Morningglory (morningglory; [3]): 10
- Plant response rating, Morningglory (morningglory; 250 g ai/ha, scale 0-100): 30
- Plant response rating, Morningglory (morningglory; [2]): 40
- Plant response rating, Ragweed (common ragweed; 62 g ai/ha, scale 0 to 100): 0
- Plant response rating, Ragweed (common ragweed; 250 g ai/ha, scale 0-100): 40
- Plant response rating, Ragweed (common ragweed; [2]): 60
- Plant response rating, Foxtail, Giant (giant foxtail; 62 g ai/ha, scale 0 to 100): 0
- Plant response rating, Foxtail, Giant (giant foxtail; [3]): 0
- Plant response rating, Foxtail, Giant (giant foxtail; 250 g ai/ha, scale 0-100): 20
- Plant response rating, Foxtail, Giant (giant foxtail; [2]): 70

SMILES: CCn1nc(C(C)(C)C)cc1C(=O)Nc1cc(C(=O)N(C)OC)ccc1F [Compound 244]
- Plant response rating, Soybean (soybean; 62 g ai/ha, scale 0 to 100): 0
- Plant response rating, Soybean (soybean; 250 g ai/ha, scale 0-100): 10
- Plant response rating, Soybean (soybean; [2]): 15
- Plant response rating, Nightshade (eastern black nightshade; 62 g ai/ha, scale 0 to 100): 100
- Plant response rating, Nightshade (eastern black nightshade; [3]): 100
- Plant response rating, Nightshade (eastern black nightshade; 250 g ai/ha, scale 0-100): 100
- Plant response rating, Nightshade (eastern black nightshade; [2]): 100
- Plant response rating, Surinam Grass (Surinam grass; 62 g ai/ha, scale 0 to 100): 100
- Plant response rating, Surinam Grass (Surinam grass; 250 g ai/ha, scale 0-100): 100
- Plant response rating, Surinam Grass (Surinam grass; [2]): 100
- Sedge, Umbrella plant response rating [1, 4]: 20
- Sedge, Umbrella plant response rating [1, 5]: 65
- Sedge, Umbrella plant response rating [1, 6]: 70
- Plant response rating, Sedge, Umbrella [1, 7]: 85
- Plant response rating, Corn (corn; 62 g ai/ha, scale 0 to 100): 0
- Plant response rating, Corn (corn; [3]): 10
- Plant response rating, Corn (corn; 250 g ai/ha, scale 0-100): 10
- Plant response rating, Corn (corn; [2]): 45
- Plant response rating, Nutsedge, Yellow (yellow nutsedge; 62 g ai/ha, scale 0 to 100): 0
- Plant response rating, Nutsedge, Yellow (yellow nutsedge; [3]): 0
- Plant response rating, Nutsedge, Yellow (yellow nutsedge; 250 g ai/ha, scale 0-100): 0
- Plant response rating, Nutsedge, Yellow (yellow nutsedge; [2]): 0
- Plant response rating, Johnsongrass (johnsongrass; 62 g ai/ha, scale 0 to 100): 60
- Plant response rating, Johnsongrass (johnsongrass; [3]): 95
- Plant response rating, Johnsongrass (johnsongrass; 250 g ai/ha, scale 0-100): 95
- Plant response rating, Johnsongrass (johnsongrass; [2]): 100
- Plant response rating, Morningglory (morningglory; 62 g ai/ha, scale 0 to 100): 0
- Plant response rating, Morningglory (morningglory; [3]): 15
- Plant response rating, Morningglory (morningglory; 250 g ai/ha, scale 0-100): 20
- Plant response rating, Morningglory (morningglory; [2]): 55
- Barnyardgrass plant response rating (barnyardgrass; [4]): 0
- Barnyardgrass plant response rating (barnyardgrass; [5]): 70
- Barnyardgrass plant response rating (barnyardgrass; [6]): 75
- Plant response rating, Barnyardgrass (barnyardgrass; [7]): 80
- Plant response rating, Ragweed (common ragweed; 62 g ai/ha, scale 0 to 100): 95
- Plant response rating, Ragweed (common ragweed; 250 g ai/ha, scale 0-100): 100
- Plant response rating, Ragweed (common ragweed; [2]): 100
- Plant response rating, Foxtail, Giant (giant foxtail; 62 g ai/ha, scale 0 to 100): 80
- Plant response rating, Foxtail, Giant (giant foxtail; [3]): 95
- Plant response rating, Foxtail, Giant (giant foxtail; 250 g ai/ha, scale 0-100): 95
- Plant response rating, Foxtail, Giant (giant foxtail; [2]): 100
- Ducksalad plant response rating (ducksalad; [4]): 25
- Ducksalad plant response rating (ducksalad; [5]): 85
- Ducksalad plant response rating (ducksalad; [6]): 85
- Plant response rating, Ducksalad (ducksalad; [7]): 95
